Values quoted from earlier work in patent US12649758B2, “Industrial method for simultaneously preparing Stevia rebaudiana chlorogenic acid and stevioside” (Chenguang Biotech Group Co., Ltd., priority 2018, dated 2026).

C=C1C[C@@]23CC[C@H]4[C@@](C)(CCC[C@@]4(C)C(=O)O[C@@H]4O[C@H](CO)[C@@H](O)[C@H](O)[C@H]4O)[C@@H]2CC[C@]1(O[C@@H]1O[C@H](CO)[C@@H](O)[C@H](O)[C@H]1O[C@@H]1O[C@H](CO)[C@@H](O)[C@H](O)[C@H]1O)C3 [Stevioside, stevioside]
sweetness relative to sucrose: 300 to 500 times of sucrose
